Patent US5981219A, “DNA molecules which code for a plastid 2-oxoglutarate/malate translocator” (Hoechst Schering Agrevo GmbH, priority 1919, dated 1999)

Key:
[1] = molecular target: T1, recombinant 2-oxoglutarate/malate translocator (transformed SP-DC3 cells) (Spinacia oleracea, UniProt Q41364); assay: Reconstituted malate transport activity (inhibitor stop method), recombinant protein from transformed SP-DC3 yeast cells in liposomes; assay type: biochemical, spinach (expressed in Schizosaccharomyces pombe); details: for transport activity, percentage of activity measured with malate-preloaded liposomes: recombinant protein (transformed SP-DC3 cells), liposomes preloaded with the indicated dicarboxylate, standard deviation in brackets
T1 construct: made in house; host or cells: Schizosaccharomyces pombe (SP-DC3 cells, plasmid pEVP11-211)
T1 sequence (Q41364 94-569): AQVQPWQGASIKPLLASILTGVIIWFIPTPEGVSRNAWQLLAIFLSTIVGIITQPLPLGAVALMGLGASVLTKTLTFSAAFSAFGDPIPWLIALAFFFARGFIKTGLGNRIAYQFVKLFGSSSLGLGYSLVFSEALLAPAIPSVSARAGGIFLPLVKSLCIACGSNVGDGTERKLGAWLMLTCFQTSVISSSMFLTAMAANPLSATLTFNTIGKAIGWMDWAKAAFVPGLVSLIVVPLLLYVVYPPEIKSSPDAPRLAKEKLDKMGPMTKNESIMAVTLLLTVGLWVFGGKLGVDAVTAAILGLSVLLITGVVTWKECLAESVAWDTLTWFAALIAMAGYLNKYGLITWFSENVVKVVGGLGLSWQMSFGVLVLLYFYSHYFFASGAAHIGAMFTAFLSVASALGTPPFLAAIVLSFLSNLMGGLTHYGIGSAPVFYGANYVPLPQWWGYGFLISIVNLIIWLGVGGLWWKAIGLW
Experimental: (§1) Yeast cells transformed with pEVP11-211 plasmid (see FIG. 2A, SP-DC3 cells) were grown in minimum essential medium up to an optical density of 1.0 at 600 nm and harvested by centrifugation at 3,000×g for 5 minutes. The cells were disrupted by vigorously shaking the mixture with 1/2 vol. (based on the cells) glass beads and glass beads and cell debris were separated by centrifugation (600 g for 1 minute). The supernatant was adjusted to a concentration of 0.5% (weight/volume) Triton X-100, an equal volume of liposomes was added to the mixture and the resulting proteoliposomes were immediately frozen in liquid nitrogen. The liposomes were previously prepared by sonification of soy bean phospholipid (20 mg/ml for 10 minutes at 4° C. in the presence of 200 mM tricine NaOH (pH 7.6), 40 mM malate and 60 mM potassium gluconate. After thawing of the proteoliposomes and sonification of the suspension with 10 pulses a 1 s the proteoliposomes were separated from the surrounding medium by size exclusion chromatography on Sephadex G-25 which had been equilibrated with 10 mM tricine NaOH (pH 7.6), 100 mM sodium gluconate and 50 mM potassium gluconate. The eluted proteoliposomes were used for measuring malate transport activity. The measurement was carried out according to the "inhibitor stop" method described by Menzlaff and Flugge (1993, Biochim. Biophys. Acta 1147:13-18).
The malate transport activity in the pEVP11-211 transformants was compared with the malate transport activity of transformants that were merely transformed with the vector pEVP11 without the 211 insert.

[2] = molecular target: T2, 2-oxoglutarate/malate translocator, envelope membrane of spinach chloroplasts (Spinacia oleracea, UniProt Q41364); assay: Reconstituted malate transport activity, envelope membrane proteins of spinach chloroplasts in liposomes; assay type: biochemical; details: for transport activity, percentage of activity measured with malate-preloaded liposomes: envelope membrane of spinach chloroplasts, liposomes preloaded with the indicated dicarboxylate, standard deviation in brackets
T2 construct: it is cleaved during the import process by a specific protease; the mature protein (m) is formed; from tissue; host or cells: spinach chloroplast envelope membranes
T2 sequence (Q41364 94-569): T1 sequence (Q41364 94-569)
Experimental: as §1
Whole yeast protein, envelope membrane proteins and the purified
2oxyoglutarate/malate translocator were reconstituted in liposomes which
were preloaded with the indicated dicarboxylates. The transport activitie
were measured as described by Menzlaff and Flugge (Biochim. Biophys. Acta
1993, 1147: 13-18) and are indicated in the percentage of activity
measured with malatepreloaded liposomes. The standard deviations are
indicated in brackets. The 100% transport activities (nMol/mg # protein
per minute) were 0.8 (recombinant protein), 21.4 (envelope membranes) and
263 (purified translocator protein).

[3] = system: protein import into intact spinach chloroplasts; assay: Import of in vitro translated translocator precursor protein into intact spinach chloroplasts (SDS-PAGE, fluorography); details: light conditions, 10 μM CCCP (lane 8, FIG. 3)
Experimental: FIG. 3: Targeting of the 2-oxoglutarate/malate translocator precursor protein to the chloroplasts and energy-dependent insertion of the mature protein in the inner envelope membrane
SDS polyacrylamide gel electrophoresis was carried out as described in Example 6:
Lane 8: plus decoupling agent (10 μM CCCP) Lane 9: plus 2 mM ATP; protease-pretreated chloro-plasts (30 μg/ml)
The in vitro transcription of plasmid pBSC-211 which was linearized with SmaI was carried out using T3 RNA polymerase according to the instructions of the manufacturer (Pharmacia). Subsequent in vitro translation was carried out in the reticulocyte lysate (Boehringer-Mannheim). The post-ribosomal supernatant was used for protein transports in intact spinach chloroplasts. The experiment was carried out in the dark as well as in the light; the preparation contained import buffer (Flugge et al., 1989, EMBO J. 8:39-46), intact spinach chloroplasts (corresponding to 200 […]) and various additives indicated in the legend to FIG. 3 (entire volume: […]). After 15 minutes at 25° C. the chloroplasts were washed and the envelope membranes […] (Flugge et al., 1989, EMBO J. 8:39-46) […]. They were analyzed in a SDS polyacrylamide gel electrophoresis (Laemmli, 1970, Nature 227:680-685) and subsequent fluorography (Bonner and Laskey, 1974, Eur. J. Biochem. 46:84-88) (FIG. 3). […]

[4] = system: purified 2-oxoglutarate/malate translocator protein; details: cited from earlier work; for transport activity, percentage of activity measured with malate-preloaded liposomes: liposomes preloaded with the indicated dicarboxylate

| Compound | transport activity, percentage of activity measured with malate-preloaded liposomes [1] | transport activity, percentage of activity measured with malate-preloaded liposomes [2] | protein import into chloroplasts [3] | transport activity, percentage of activity measured with malate-preloaded liposomes [4] | 100% transport activity ([1]; malate-preloaded liposomes, recombinant protein) | 100% transport activity ([2]; malate-preloaded liposomes, envelope membranes) | 100% transport activity ([4]; malate-preloaded liposomes) |
| --- | --- | --- | --- | --- | --- | --- | --- |
| O=C(O)CCC(=O)C(=O)O [2-Oxoglutarate] | 44 (±14) % | 46 (±2) % | – | – | – | – | – |
| N[C@@H](CC(=O)O)C(=O)O [Aspartate] | 13 (±4) % | 12 (±1) % | – | – | – | – | – |
| N#CC(C#N)=NNc1cccc(Cl)c1 [CCCP] | – | – | the protein import is blocked | – | – | – | – |
| O=C(O)/C=C/C(=O)O [Fumarate] | 119 (±24) % | 72 (±2) % | – | 65% | – | – | – |
| N[C@@H](CCC(=O)O)C(=O)O [Glutamate] | 3 (±1) % | 6 (±1) % | – | – | – | – | – |
| O=C(O)CCCC(=O)O [Glutarate] | 63 (±14) % | 52 (±1) % | – | – | – | – | – |
| O=C(O)CC(O)C(=O)O (stereo not drawn) [Malate] | 100% | 100% | – | 100% | 0.8 nMol/mg protein per minute | 21.4 nMol/mg protein per minute | 263 nMol/mg protein per minute |
| O=C(O)CCC(=O)O [Succinate] | 83 (±12) % | 74 (±2) % | – | 63% | – | – | – |
